From patent publication US20230365592A1 (Agios Pharmaceuticals, Inc., priority 2022, published 2023)

These compounds were tested against T1, human PAH with the R408W mutation (Homo sapiens, UniProt P00439, R408W) (assay: Cell Based Phenylalanine Flux Assay). Settings: A375 cells expressing R408W PAH; 24 hrs with compound, then 20 µM sepiapterin and 800 µM 13C9,15N-Phenylalanine for 4 hours; 13C-Tyrosine by LC-MS; average where tested multiple times; read-out: AC50.
T1 construct: expressed in transfected cells
T1 sequence (P00439 1-452 R408W): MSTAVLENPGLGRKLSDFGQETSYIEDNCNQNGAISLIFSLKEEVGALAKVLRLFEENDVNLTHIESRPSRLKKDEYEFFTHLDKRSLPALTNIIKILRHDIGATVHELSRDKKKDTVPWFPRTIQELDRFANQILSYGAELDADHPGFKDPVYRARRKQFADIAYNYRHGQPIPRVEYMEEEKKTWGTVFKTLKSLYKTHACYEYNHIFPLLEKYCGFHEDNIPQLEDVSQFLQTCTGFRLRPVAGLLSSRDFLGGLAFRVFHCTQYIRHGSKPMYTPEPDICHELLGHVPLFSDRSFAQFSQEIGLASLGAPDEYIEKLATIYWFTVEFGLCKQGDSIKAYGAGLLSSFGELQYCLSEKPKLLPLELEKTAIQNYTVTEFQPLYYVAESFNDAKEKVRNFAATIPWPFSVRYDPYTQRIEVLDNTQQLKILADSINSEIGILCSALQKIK
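Note: after compound treatment, cells received sepiapterin plus isotope-labelled Phenylalanine for 4 hours, then labelled Tyrosine in the medium was quantified, 10-point 2-fold dilution series run in duplicate.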

| Structure (SMILES) | AC50 [nM] |
| --- | --- |
| Cn1cncc1-c1nnc(C(=O)N2CCc3[nH]cnc3C2c2cc3cccc(C(F)F)n3n2)o1 (centres unmarked) | 1000 to 5000 |
| COCc1ccc2c(C(=O)N3CCc4[nH]cnc4C3c3cc4cccc(C(F)(F)F)n4n3)cnn2c1 (centres unmarked) | 1000 to 5000 |
| CC(C)c1nnc(N2CCc3[nH]cnc3C2c2cc3c(C4CC4)cccn3n2)o1 (centres unmarked) | > 5000 |
| FC1(F)CC(c2nnc(N3CCc4[nH]cnc4C3c3cc4c(Cl)cccn4n3)o2)C1 (centres unmarked) | 1000 to 5000 |
| O=C(c1cnco1)N1CCc2[nH]cnc2C1c1cc2cc(F)ccn2n1 (centres unmarked) | 1000 to 5000 |
| CC(C)(F)c1nnc(N2CCc3[nH]cnc3C2c2cc3c(Cl)cccn3n2)o1 (centres unmarked) | > 5000 |
| Cc1cccn2nc([C@@H]3c4nc[nH]c4CCN3c3nnc(C4CC(F)(F)C4)o3)cc12 (single isomer, unassigned) | 1000 to 5000 |
| O=C(c1nnc(-c2ncccn2)o1)N1CCc2[nH]cnc2C1c1cc2cccc(C(F)(F)F)n2n1 (centres unmarked) | > 5000 |

Same assay, conditions: A375 cells expressing human PAH R408W; 24 hrs compound incubation; 13C-Tyrosine by LC-MS; average where tested multiple times; read-out: AC50

| Structure (SMILES) | AC50 [nM] |
| --- | --- |
| Cc1cccc(-c2nnc(N3CCc4[nH]cnc4[C@@H]3c3cc4c(C5CC5)cccn4n3)o2)n1 [Example 2358, (R)-2-(4-(4-cyclopropylpyrazolo[1,5-a]pyridin-2-yl)-1,4,6,7-tetrahydro-5H-imidazo[4,5-c]pyridin-5-yl)-5-(6-methylpyridin-2-yl)-1,3,4-oxadiazole] | > 5000 |
| Cc1nnc(N2CCc3[nH]cnc3[C@H]2c2cc3c(C)cccn3n2)o1 [Example 2443, (S)-2-methyl-5-(4-(4-methylpyrazolo[1,5-a]pyridin-2-yl)-6,7-dihydro-1H-imidazo[4,5-c]pyridin-5(4H)-yl)-1,3,4-oxadiazole] | 1000 to 5000 |
| FC(F)c1cccn2nc([C@@H]3c4nc[nH]c4CCN3c3ccc(C(F)(F)F)cn3)cc12 [Example 1916, (S)-4-(4-(difluoromethyl)pyrazolo[1,5-a]pyridin-2-yl)-5-(5-(trifluoromethyl)pyridin-2-yl)-4,5,6,7-tetrahydro-1H-imidazo[4,5-c]pyridine] | < 500 |
| c1cnc(N2CCc3[nH]cnc3[C@@H]2c2cc3c(C4CC4)cccn3n2)nc1 [Example 2173, (R)-4-(4-cyclopropylpyrazolo[1,5-a]pyridin-2-yl)-5-(pyrimidin-2-yl)-4,5,6,7-tetrahydro-1H-imidazo[4,5-c]pyridine] | 1000 to 5000 |
| CC(C)c1nnc(N2CCc3[nH]cnc3[C@H]2c2cc3c(C(F)(F)F)cccn3n2)o1 [Example 2305, (S)-2-isopropyl-5-(4-(4-(trifluoromethyl)pyrazolo[1,5-a]pyridin-2-yl)-1,4,6,7-tetrahydro-5H-imidazo[4,5-c]pyridin-5-yl)-1,3,4-oxadiazole] | 500 to 1000 |

Same assay, conditions: A375 cells expressing human R408W PAH; 24 hrs compound incubation; 13C-Tyrosine by LC-MS; average where tested multiple times; read-out: AC50

| Structure (SMILES) | AC50 [nM] |
| --- | --- |
| O=C(c1nnc(-c2cnccn2)o1)N1CCc2[nH]cnc2[C@@H]1c1cc2cccc(C(F)F)n2n1 [Example 1534, (R)-(4-(7-(difluoromethyl)pyrazolo[1,5-a]pyridin-2-yl)-6,7-dihydro-1H-imidazo[4,5-c]pyridin-5(4H)-yl)(5-(pyrazin-2-yl)-1,3,4-oxadiazol-2-yl)methanone] | 1000 to 5000 |
| Cc1nc(C(C)(C)O)oc1C(=O)N1CCc2[nH]cnc2[C@@H]1c1cc2c(Cl)cccn2n1 [Example 725, (R)-(4-(4-chloropyrazolo[1,5-a]pyridin-2-yl)-6,7-dihydro-1H-imidazo[4,5-c]pyridin-5(4H)-yl)(2-(2-hydroxypropan-2-yl)-4-methyloxazol-5-yl)methanone] | > 5000 |
| O=C(c1ocnc1C(F)F)N1CCc2[nH]cnc2[C@H]1c1cc2cccc(F)n2n1 [Example 1202, (S)-(4-(difluoromethyl)oxazol-5-yl)(4-(7-fluoropyrazolo[1,5-a]pyridin-2-yl)-6,7-dihydro-1H-imidazo[4,5-c]pyridin-5(4H)-yl)methanone] | < 500 |
| Cc1cccc(-c2nnc(C(=O)N3CCc4[nH]cnc4[C@H]3c3cc4c(C(F)F)cccn4n3)o2)n1 [Example 1465, (S)-(4-(4-(difluoromethyl)pyrazolo[1,5-a]pyridin-2-yl)-6,7-dihydro-1H-imidazo[4,5-c]pyridin-5(4H)-yl)(5-(6-methylpyridin-2-yl)-1,3,4-oxadiazol-2-yl)methanone] | < 500 |
| Cc1nc(C(C)(C)F)oc1C(=O)N1CCc2[nH]cnc2[C@@H]1c1cc2c(F)cccn2n1 [Example 1274, (R)-(2-(2-fluoropropan-2-yl)-4-methyloxazol-5-yl)(4-(4-fluoropyrazolo[1,5-a]pyridin-2-yl)-6,7-dihydro-1H-imidazo[4,5-c]pyridin-5(4H)-yl)methanone] | < 500 |
| Cc1cccn2nc([C@H]3c4nc[nH]c4CCN3C(=O)c3nnc(-c4ccnn4C)o3)cc12 [Example 1017, (R)-(5-(1-methyl-1H-pyrazol-5-yl)-1,3,4-oxadiazol-2-yl)(4-(4-methylpyrazolo[1,5-a]pyridin-2-yl)-6,7-dihydro-1H-imidazo[4,5-c]pyridin-5(4H)-yl)methanone] | > 5000 |
| O=C(c1nnc(-c2cnn(C3CCC3)c2)o1)N1CCc2[nH]cnc2[C@H]1c1cc2c(F)cccn2n1 [Example 832, (S)-(5-(1-cyclobutyl-1H-pyrazol-4-yl)-1,3,4-oxadiazol-2-yl)(4-(4-fluoropyrazolo[1,5-a]pyridin-2-yl)-6,7-dihydro-1H-imidazo[4,5-c]pyridin-5(4H)-yl)methanone] | < 500 |
| CN(C)c1ccc2c(C(=O)N3CCc4[nH]cnc4[C@@H]3c3cc4c(C(F)(F)F)cccn4n3)cnn2c1 [Example 1747, (R)-(6-(dimethylamino)pyrazolo[1,5-a]pyridin-3-yl)(4-(4-(trifluoromethyl)pyrazolo[1,5-a]pyridin-2-yl)-6,7-dihydro-1H-imidazo[4,5-c]pyridin-5(4H)-yl)methanone] | > 5000 |
| O=C(c1nnc(-c2cnn(C(F)(F)F)c2)o1)N1CCc2[nH]cnc2[C@H]1c1cc2c(C(F)F)cccn2n1 [Example 1570, (S)-(4-(4-(difluoromethyl)pyrazolo[1,5-a]pyridin-2-yl)-6,7-dihydro-1H-imidazo[4,5-c]pyridin-5(4H)-yl)(5-(1-(trifluoromethyl)-1H-pyrazol-4-yl)-1,3,4-oxadiazol-2-yl)methanone] | < 500 |
| Cc1c(-c2nnc(C(=O)N3CCc4[nH]cnc4[C@H]3c3cc4cccc(F)n4n3)o2)cnn1C [Example 1462, (S)-(5-(1,5-dimethyl-1H-pyrazol-4-yl)-1,3,4-oxadiazol-2-yl)(4-(7-fluoropyrazolo[1,5-a]pyridin-2-yl)-6,7-dihydro-1H-imidazo[4,5-c]pyridin-5(4H)-yl)methanone] | < 500 |
| Cc1cccn2nc([C@H]3c4nc[nH]c4CCN3C(=O)c3oc(-c4cnn(C)c4)nc3C(F)F)cc12 [Example 1009, (R)-(4-(difluoromethyl)-2-(1-methyl-1H-pyrazol-4-yl)oxazol-5-yl)(4-(4-methylpyrazolo[1,5-a]pyridin-2-yl)-6,7-dihydro-1H-imidazo[4,5-c]pyridin-5(4H)-yl)methanone] | 500 to 1000 |
| COc1ccc(-c2nnc(C(=O)N3CCc4[nH]cnc4[C@@H]3c3cc4c(F)cccn4n3)o2)nc1 [Example 789, (R)-(4-(4-fluoropyrazolo[1,5-a]pyridin-2-yl)-6,7-dihydro-1H-imidazo[4,5-c]pyridin-5(4H)-yl)(5-(5-methoxypyridin-2-yl)-1,3,4-oxadiazol-2-yl)methanone] | 1000 to 5000 |
| Cc1cccn2nc([C@H]3c4nc[nH]c4CCN3C(=O)c3oc(-c4cncn4C)nc3C(F)F)cc12 [Example 890, (R)-(4-(difluoromethyl)-2-(1-methyl-1H-imidazol-5-yl)oxazol-5-yl)(4-(4-methylpyrazolo[1,5-a]pyridin-2-yl)-6,7-dihydro-1H-imidazo[4,5-c]pyridin-5(4H)-yl)methanone] | > 5000 |
